US11123337B2, “4-methylsulfonyl-substituted piperidine urea compounds” (MYOKARDIA, INC., priority 2015, dated 2021)
Structures can show the parent of a compound that is named as a salt.

Legend:
[1] = system: adult rat ventricular myocytes; assay: Cardiomyocyte contractility assay (IonOptix edge detection, fractional shortening); assay type: cell-based; conditions: 1 Hz pacing; for Activity at 1.0 uM (fractional shortening activation over basal): 1.0 uM compound; for Activity at 10 uM (fractional shortening activation over basal): 10 uM compound; for Activity at 3.0 uM (fractional shortening activation over basal): 3.0 uM compound
Procedure: Contractility of adult rat ventricular myocytes is determined by edge detection with an IonOptix contractility system. Aliquots of myocytes in Tyrode buffer (137 mM NaCl, 3.7 mM KCl, 0.5 mM MgCl2, 1.5 mM CaCl2), 4 mM HEPES, 11 mM glucose) are placed in a perfusion chamber (Series 20 RC-27NE; Warner Instruments), allowed to adhere to the coverslip, and then perfused with 37° C. Tyrode buffer. Myocytes are filed stimulated at 1 Hz and 10V. Only myocytes with clear striations, quiescent prior to pacing, with a cell length of 120-180 microns, a basal fractional shortening equal to 3-8% of the cell length, and a contraction velocity greater than 100 microns per second are used for contractility experiments. To determine the response to compounds, myocytes are first perfused for 60 seconds with Tyrodes buffer followed by 5 minutes of compound and a 140 second washout with Tyrodes buffer. Data is continuously recorded using IonOptix software. Contractility data is analyzed using Ionwizard software (IonOptix). For each cell, 10-20 contractility transients were averaged and compared under basal (no compound) and compound-treated conditions. Compound activity is measured by effects on fractional shortening (FS), where fractional shortening is the ratio of the peak length of the cell at contraction divided by the basal cell length normalized to 100% for an untreated cell.

bovine cardiac myosin = bovine cardiac myosin (Bos taurus, UniProt Q9BE39); assay: Myosin activation assay (PK/LDH-coupled ATPase, bovine cardiac myofibrils); assay type: biochemical; conditions: AC20 = concentration at which total response is increased by twenty percent
Method in brief: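 Skinned bovine cardiac myofibrils (1 mg/mL) in PIPES/MgCl2 buffer pH 6.8 at free Ca2+ giving ~50% (pCa ~6) or <5% (pCa 10) activation, with 50 μM ATP and 3.3% DMSO. ATPase rate from NADH absorbance at 340 nm (PK/LDH coupling) over 15 min at ambient temperature. AC20/AC50 from a four-parameter fit of DMSO-normalised rates.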

Chain of bovine cardiac myosin (Q9BE39 whole entry): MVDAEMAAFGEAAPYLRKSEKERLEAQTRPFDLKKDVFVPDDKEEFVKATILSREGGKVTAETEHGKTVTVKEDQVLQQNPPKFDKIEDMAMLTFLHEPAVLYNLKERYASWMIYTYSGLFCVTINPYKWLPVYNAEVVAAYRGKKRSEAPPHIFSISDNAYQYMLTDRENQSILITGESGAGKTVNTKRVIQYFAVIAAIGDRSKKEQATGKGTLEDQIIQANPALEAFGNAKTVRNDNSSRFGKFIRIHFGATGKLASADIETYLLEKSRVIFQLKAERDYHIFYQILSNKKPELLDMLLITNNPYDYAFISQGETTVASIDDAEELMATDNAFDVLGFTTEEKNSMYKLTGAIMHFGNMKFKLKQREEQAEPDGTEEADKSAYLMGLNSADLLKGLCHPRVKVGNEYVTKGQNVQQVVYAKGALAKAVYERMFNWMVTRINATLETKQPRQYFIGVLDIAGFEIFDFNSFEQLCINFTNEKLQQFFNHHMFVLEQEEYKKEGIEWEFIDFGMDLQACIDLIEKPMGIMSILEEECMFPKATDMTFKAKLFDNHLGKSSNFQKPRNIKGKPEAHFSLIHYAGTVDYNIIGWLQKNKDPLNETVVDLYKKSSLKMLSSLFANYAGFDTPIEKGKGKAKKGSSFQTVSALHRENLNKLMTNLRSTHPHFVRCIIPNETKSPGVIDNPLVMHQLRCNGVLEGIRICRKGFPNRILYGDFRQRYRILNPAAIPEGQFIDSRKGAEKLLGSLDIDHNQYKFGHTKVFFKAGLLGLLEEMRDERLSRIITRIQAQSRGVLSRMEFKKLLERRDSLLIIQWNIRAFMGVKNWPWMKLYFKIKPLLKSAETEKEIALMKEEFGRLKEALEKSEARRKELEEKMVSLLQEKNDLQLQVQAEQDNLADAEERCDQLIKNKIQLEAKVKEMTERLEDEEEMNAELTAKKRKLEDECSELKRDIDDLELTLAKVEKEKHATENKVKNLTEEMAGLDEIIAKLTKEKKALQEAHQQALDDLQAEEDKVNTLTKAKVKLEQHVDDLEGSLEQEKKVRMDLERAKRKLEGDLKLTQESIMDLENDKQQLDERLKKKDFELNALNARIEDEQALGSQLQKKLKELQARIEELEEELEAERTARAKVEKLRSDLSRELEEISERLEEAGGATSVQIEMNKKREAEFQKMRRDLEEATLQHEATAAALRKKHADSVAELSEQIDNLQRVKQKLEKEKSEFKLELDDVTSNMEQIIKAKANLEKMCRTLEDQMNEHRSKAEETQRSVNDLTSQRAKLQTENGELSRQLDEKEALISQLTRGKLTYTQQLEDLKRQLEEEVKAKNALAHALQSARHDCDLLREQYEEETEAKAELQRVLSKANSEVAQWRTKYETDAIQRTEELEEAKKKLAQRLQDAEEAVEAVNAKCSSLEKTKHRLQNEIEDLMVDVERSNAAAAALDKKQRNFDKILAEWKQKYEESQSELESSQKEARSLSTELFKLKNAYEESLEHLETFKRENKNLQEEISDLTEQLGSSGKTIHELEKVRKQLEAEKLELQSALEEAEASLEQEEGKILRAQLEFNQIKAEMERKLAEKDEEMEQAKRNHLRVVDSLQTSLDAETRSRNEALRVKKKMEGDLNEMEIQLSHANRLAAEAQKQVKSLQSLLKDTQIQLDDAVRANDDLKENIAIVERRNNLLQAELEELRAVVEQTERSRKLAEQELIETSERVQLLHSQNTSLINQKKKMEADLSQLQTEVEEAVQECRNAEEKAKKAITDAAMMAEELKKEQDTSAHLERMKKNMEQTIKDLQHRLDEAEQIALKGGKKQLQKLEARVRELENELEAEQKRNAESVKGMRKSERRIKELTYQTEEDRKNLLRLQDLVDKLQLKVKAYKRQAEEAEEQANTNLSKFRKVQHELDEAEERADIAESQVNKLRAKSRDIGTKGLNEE
Chain of bovine cardiac myosin (P85100 whole entry partner): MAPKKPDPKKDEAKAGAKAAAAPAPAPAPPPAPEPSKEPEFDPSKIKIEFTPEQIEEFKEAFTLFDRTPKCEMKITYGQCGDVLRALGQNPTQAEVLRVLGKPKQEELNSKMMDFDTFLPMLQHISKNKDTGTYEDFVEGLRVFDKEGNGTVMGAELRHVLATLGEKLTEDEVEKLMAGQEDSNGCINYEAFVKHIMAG
Chain of bovine cardiac myosin (Q3SZE5 whole entry partner): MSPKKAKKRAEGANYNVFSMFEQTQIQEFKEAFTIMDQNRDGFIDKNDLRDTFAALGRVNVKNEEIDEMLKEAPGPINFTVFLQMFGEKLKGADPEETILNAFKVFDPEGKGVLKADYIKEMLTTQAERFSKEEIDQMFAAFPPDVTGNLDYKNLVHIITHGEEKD

| SMILES | Activity at 1.0 uM (fractional shortening activation over basal) [1] | Activity at 10 uM (fractional shortening activation over basal) [1] | Myosin Activation (AC20) (bovine cardiac myosin) | Activity at 3.0 uM (fractional shortening activation over basal) [1] |
| --- | --- | --- | --- | --- |
| O=C(Nc1ccnnc1)N1CCC(C(F)(F)S(=O)(=O)c2cccc(F)c2)CC1 [Compound 5, 4-(Difluoro((3-fluorophenyl)sulfonyl)methyl)-N-(pyridazin-4-yl)piperidine-1-carboxamide] | ++ (++ represents fractional shorting activation values from 20% to 50% over basal) | +++ (+++ represents fractional shortening activation values greater than 50% over basal) | ++ (++ represents myosin activation value AC20 from 2 μM-5 μM) |  |
| CC(F)(C1CCN(C(=O)Nc2ccnnc2)CC1)S(=O)(=O)c1cccc(F)c1 (centres unmarked) [Compound 6, 4-(1-Fluoro-1-((3-fluorophenyl)sulfonyl)ethyl)-N-(pyridazin-4-yl)piperidine-1-carboxamide trifluoroacetic acid salt] |  | ++ (++ represents fractional shorting activation values from 20% to 50% over basal) | ++ (++ represents myosin activation value AC20 from 2 μM-5 μM) |  |
| CC(C)(C1CCN(C(=O)Nc2ccnnc2)CC1)S(=O)(=O)c1cccc(F)c1 [Compound 7, 4-(2-((3-fluorophenyl)sulfonyl)propan-2-yl)-N-(pyridazin-4-yl)piperidine-1-carboxamide] | ++ (++ represents fractional shorting activation values from 20% to 50% over basal) | ++ (++ represents fractional shorting activation values from 20% to 50% over basal) | +++ (+++ represents myosin activation value AC20 < 2 μM) |  |
| Cn1nc(C(F)(F)F)cc1S(=O)(=O)[C@@](C)(F)C1CCN(C(=O)Nc2ccon2)CC1 [Compound 18, (R)-4-(1-Fluoro-1-((1-methyl-3-(trifluoromethyl)-1H-pyrazol-5-yl)sulfonyl)ethyl)-N-(isoxazol-3-yl)piperidine-1-carboxamide] | +++ (+++ represents fractional shortening activation values greater than 50% over basal) |  | +++ (+++ represents myosin activation value AC20 < 2 μM) |  |
| Cn1cc(S(=O)(=O)[C@@](C)(F)C2CCN(C(=O)Nc3ccon3)CC2)c(C(F)F)n1 [Compound 20, (R)-4-(1-((3-(Difluoromethyl)-1-methyl-1H-pyrazol-4-yl)sulfonyl)-1-fluoroethyl)-N-(isoxazol-3-yl)piperidine-1-carboxamide] | + (+ represents fractional shorting activation <20% over basal) |  | +++ (+++ represents myosin activation value AC20 < 2 μM) | ++ (++ represents fractional shorting activation values from 20% to 50% over basal) |
| CC(C)(C1CCN(C(=O)Nc2ccncc2)CC1)S(=O)(=O)c1cccc(F)c1 [Compound 32, 4-(2-((3-fluorophenyl)sulfonyl)propan-2-yl)-N-(pyridin-4-yl)piperidine-1-carboxamide] | ++ (++ represents fractional shorting activation values from 20% to 50% over basal) |  | +++ (+++ represents myosin activation value AC20 < 2 μM) |  |
| Cn1nc(Cl)cc1S(=O)(=O)C(C)(C)C1CCN(C(=O)Nc2ccon2)CC1 [Compound 129, 4-(2-((3-chloro-1-methyl-1H-pyrazol-5-yl)sulfonyl)propan-2-yl)-N-(isoxazol-3-yl)piperidine-1-carboxamide] |  |  | +++ (+++ represents myosin activation value AC20 < 2 μM) | +++ (+++ represents fractional shortening activation values greater than 50% over basal) |
| Cn1cc(S(=O)(=O)C(C)(C)C2CCN(C(=O)Nc3ccon3)CC2)c(C(F)F)n1 [Compound 149, 4-(2-((3-(difluoromethyl)-1-methyl-1H-pyrazol-4-yl)sulfonyl)propan-2-yl)-N-(isoxazol-3-yl)piperidine-1-carboxamide] |  |  | ++ (++ represents myosin activation value AC20 from 2 μM-5 μM) | ++ (++ represents fractional shorting activation values from 20% to 50% over basal) |
| COc1ccc(S(=O)(=O)C(C)(F)C2CCN(C(=O)Nc3ccon3)CC2)cn1 (centres unmarked) [Compound 246, 4-(1-fluoro-1-((6-methoxypyridin-3-yl)sulfonyl)ethyl)-N-(isoxazol-3-yl)piperidine-1-carboxamide] |  |  | ++ (++ represents myosin activation value AC20 from 2 μM-5 μM) | +++ (+++ represents fractional shortening activation values greater than 50% over basal) |
| C[C@](F)(C1CCN(C(=O)Nc2ccnc(CO)c2)CC1)S(=O)(=O)c1cccc(F)c1 [Compound 287, (R)-4-(1-fluoro-1-((3-fluorophenyl)sulfonyl)ethyl)-N-(2-(hydroxymethyl)pyridin-4-yl)piperidine-1-carboxamide] | ++ (++ represents fractional shorting activation values from 20% to 50% over basal) |  | +++ (+++ represents myosin activation value AC20 < 2 μM) | ++ (++ represents fractional shorting activation values from 20% to 50% over basal) |
| COc1ccc(S(=O)(=O)[C@@](C)(F)C2CCN(C(=O)Nc3ccon3)CC2)cn1 [Compound 308, (R)-4-(1-fluoro-1-((6-methoxypyridin-3-yl)sulfonyl)ethyl)-N-(isoxazol-3-yl)piperidine-1-carboxamide] |  |  | ++ (++ represents myosin activation value AC20 from 2 μM-5 μM) |  |
| C[C@@](F)(C1CCN(C(=O)Nc2ccon2)CC1)S(=O)(=O)c1ccc(C(F)(F)F)nc1 [Compound 309, (S)-4-(1-fluoro-1-((6-(trifluoromethyl)pyridin-3-yl)sulfonyl)ethyl)-N-(isoxazol-3-yl)piperidine-1-carboxamide] |  |  | + (+ represents myosin activation value AC20 > 5 μM) |  |
| C[C@](F)(C1CCN(C(=O)Nc2ccon2)CC1)S(=O)(=O)c1ccc(C(F)(F)F)nc1 [Compound 310, (R)-4-(1-fluoro-1-((6-(trifluoromethyl)pyridin-3-yl)sulfonyl)ethyl)-N-(isoxazol-3-yl)piperidine-1-carboxamide] |  |  | ++ (++ represents myosin activation value AC20 from 2 μM-5 μM) |  |
| C[C@@](F)(C1CCN(C(=O)Nc2ccon2)CC1)S(=O)(=O)c1ccc(OC(F)F)nc1 [Compound 311, (S)-4-(1-((6-(difluoromethoxy)pyridin-3-yl)sulfonyl)-1-fluoroethyl)-N-(isoxazol-3-yl)piperidine-1-carboxamide] |  |  | + (+ represents myosin activation value AC20 > 5 μM) |  |
| C[C@](F)(C1CCN(C(=O)Nc2ccon2)CC1)S(=O)(=O)c1ccc(OC(F)F)nc1 [Compound 312, (R)-4-(1-((6-(difluoromethoxy)pyridin-3-yl)sulfonyl)-1-fluoroethyl)-N-(isoxazol-3-yl)piperidine-1-carboxamide] |  |  | +++ (+++ represents myosin activation value AC20 < 2 μM) |  |
